{
  "source": "patent US5766927A",
  "about": "“Inhibition of protein degradation in living cells with dipeptides” (Massachusetts Institute of Technology, priority 1994, dated 1998)",
  "key": {"[1]": {"tested_on": "yeast (S.cerevisiae) cells", "experiment": "Effect on yeast cell growth (optical density at 600 nm)", "description": "(§1) Saccharomyces cerevisiaecells of the strain BWGl-7a (MATa his4 ade1 ura3 leu2) were transformed with plasmids using conventional techniques (F. Sherman et al. Methods in Yeast Genetics Cold Spring Harbor Laboratory, N.Y., 1981). The transformed cells were grown at 30° C. in a medium of 2% galactose, 0.67% Yeast Nitrogen Base without amino acids (Difco), adenine (10 μg/mL), histidine (20 μg/mL) and leucine (60 ug/mL).\nThe effect of 10 mM of leucine methyl ester (Leu methyl ester) on growth of exponentially growing yeast cells harboring a plasmid expressing either arginine-βgal (Arg-βgal, .largecircle., .circle-solid.) or leucine-βgal (Leu-βgal, .quadrature.,.box-solid.), supplemented with nothing (.largecircle.,.box-solid.) or with Leu methyl ester to a 10 mM final concentration (.box-solid.,.circle-solid.), was assessed. Results are represented in FIG. 1. Growth under each of these conditions was monitored by optical density at 600 nm."}, "Arg-βgal": {"tested_on": "Arg-βgal", "experiment": "Steady state β-galactosidase activity, cells expressing Arg-βgal", "conditions": "for in vivo metabolic stabilization of Arg-βgal (βgal activity relative to untreated control): 2 hours incubation with dipeptide", "description": "as §1"}, "Leu-βgal [2]": {"tested_on": "Leu-βgal", "experiment": "Steady state β-galactosidase activity, cells expressing Leu-βgal", "format": "cell-based, Saccharomyces cerevisiae", "conditions": "10 mM", "description": "(§2) Incubation was continued at 30° C.\nControl cultures (.largecircle., .quadrature.) received no methyl ester.\nExponentially growing yeast cells harboring a plasmid expressing Leu- βal were supplemented with Leu methyl ester to the 10 mM final concentration (zero time) and assayed for βgal activity over a 7 hour time course (.box-solid.). A control culture (.quadrature.) received no methyl ester."}, "Val-βgal": {"tested_on": "Val-βgal", "experiment": "Steady state β-galactosidase activity, cells expressing Val-βgal (control)", "format": "cell-based, Saccharomyces cerevisiae", "conditions": "Leu-OMe 0 to 10 mM, 1 hour incubation", "description": "as §2"}, "Tyr-βgal": {"tested_on": "Tyr-βgal", "experiment": "Pulse-chase experiment in vivo and half-life determination, Tyr-βgal", "format": "cell-based, Saccharomyces cerevisiae", "conditions": "for in vivo half-life (metabolic stabilization) of Tyr-βgal: 4 hour incubation", "description": "(§3) Transformed cells were grown as described above, except that methionine (20 ug/mL) was included, to an optical density of about 0.5 at 600 nm. Amino acid derivatives were added and incubation continued for 4 to 5 hours until the optical density was approximately 1.0. Cells from a 10 mL culture were harvested by filtration through the well of a microtiter filtration plate. Subsequently, the cells were washed several times on the filter in the growth medium lacking methionine, and resuspended in 0.4 mL of 1% galactose, 50 mM potassium phosphate buffer (pH 7.4). (^35 S)methionine (100 uCi) was then added for a specified pulse time. The cells were collected by filtration and resuspended in 0.4 mL of the growth medium containing cycloheximide (0.2 mg/mL) and trichodermin (50 ug/mL). Samples (0.1 mL) were withdrawn at indicated times, and added to 0.8 mL of cold Buffer A (50 mM Na-HEPES pH 7.5, 0.15M NaCl, 5 mM EDTA, 1% TRiton X-100) containing leupeptin, pepstatin A, antipain, aprotinin and chymostatin (Sigma), (each at 20 ug/mL) in addition to 0.4 mL of glass beads. The cells were disrupted by vortexing three times for one minute at 4° C. The extracts were centrifuged at 12,000 g for 10 minutes and the radioactivity of acid-insoluble ^35 S in the supernatants was determined. Aliquots of the supernatants containing equal amounts of total acid-insoluble ^35 S were processed for immunoprecipitation with a monoclonal antibody to βgal. Ascitic fluid containing a molar excess of the antibody (at least ten-fold) was added to each aliquot, with subsequent incubation on ice for 1 to 2 hours. Protein A-Sepharose (Pharmacia) was then added and the suspension was incubated with rocking at 4° C. for 30 minutes and centrifuged at 12,000 g for thirty seconds. The protein A-Sepharose pellets were washed three times in Buffer A containing 0.1% SDS, resuspended in an SDS, dithiothreitol (DTT)-containing electrophoretic sample buffer, heated at 100° C. for 3 minutes, and centrifuged at 12,000 g for 20 seconds. (Laemmli, Nature 227, 680 (1970)). The supernatants were subjected to electrophoresis in a 6% discontinuous polyacrylamide-SDS gel (150 by 150 by 1.5 mm), with subsequent fluorography.\n(§4) After fluorography of the pulse-chase gels, the amount of radioactivity in each band was detected by scintillation counting of the respective gel slices. Half-lives were calculated from these values (appropriately adjusted using the value from a blank gel slice) assuming a first-order kinetics of protein breakdown.\nA pulse-chase experiment (3 minute pulse) was carried out with cells expressing Tyr-βgal in the absence (A) or presence (B) of a 4 hour incubation with 10 mM Leu methyl ester. Timepoints: 0 min (lane 1); 10 min (lane 2); 30 min (lane 3); and 60 min (lane 4). See legend to FIG. 6 for band designations."}, "Leu-βgal [3]": {"tested_on": "Leu-βgal", "format": "cell-based, Saccharomyces cerevisiae", "conditions": "for half-life (metabolic stabilization) of Leu-βgal in the presence of Leu methyl ester: 10 mM, 3 hour incubation", "description": "as §3, §4\nA pulse-chase experiment (5 minute pulse) was carried out with cells expressing Val-βgal (A), or Leu-βgal in the presence (B) or absence (C) of a 3 hour incubation with 10 mM Leu methyl ester. Timepoints: 0 min (lane 1); 10 min (lane 2); and 30 min (lane 3). Bands are labelled: βgal (β-galactosidase); 90 kD (a cleavage product of βgal; note its absence from the lanes with metabolically stable Val-βgal lanes); X (an unrelated protein species crossreacting with the monoclonal antibody to βgal); and S (a βgal cleavage product apparently specific for metabolically stable X-βgal; species).\nA pulse-chase experiment (5 minute pulse) was carried out with cells expressing Val-βgal (A), Leu-βgal (B), Leu-βgal plus 10 mM L-Ala-L-Trp (C), and Leu-βgal plus 10 mM L-Trp-L-Ala (D). Incubation with each dipeptide was carried out for 4 hours. Timepoints: 0 min (lane 1); 10 min (lane 2); and 30 min (lane 3). See legend to FIG. 6 for band designations."}, "[4]": {"tested_on": "X-βgal proteins with bulky hydrophobic amino termini (Phe-βgal, Leu-βgal, Trp-βgal, Tyr-βgal, Ile-βgal)", "experiment": "Steady state β-galactosidase activity, X-βgal proteins with bulky hydrophobic amino-terminal residues", "format": "cell-based, Saccharomyces cerevisiae", "conditions": "1 hour incubation", "description": "as §2"}, "[5]": {"conditions": "dipeptides, over the time periods used (data not shown)"}, "[6]": {"conditions": "10 mM Leu methyl ester vs minus OMe"}},
  "note": "Entries after “also recorded” stand apart in the source; their conditions may differ. Where two headings read alike, the source gives them in different places. Residues, ends and D or L forms follow the SMILES beside them.",
  "data": [
    {"compound": "C[C@H](N)C(=O)N[C@@H](Cc1c[nH]c2ccccc12)C(=O)O", "note": "[L-Ala-L-Trp, reference compound] (H-Ala-Trp-OH)", "values": [
      {"measurement": "effect on yeast cell growth", "setting": "[1]", "value": "no adverse effect"}
    ]},
    {"compound": "C[C@@H](NC(=O)[C@@H](N)CCCNC(=N)N)C(=O)O", "note": "[L-Arg-D-Ala] (HELM PEPTIDE1{R.[dA]}$$$$V2.0)", "values": [
      {"measurement": "in vivo metabolic stabilization of Arg-βgal (βgal activity relative to untreated control)", "setting": "Arg-βgal", "value": "stronger metabolic stabilization; also recorded: much better in vivo metabolic stabilizer"}
    ]},
    {"compound": "C[C@H](NC(=O)[C@@H](N)Cc1c[nH]c2ccccc12)C(=O)O", "note": "[L-Trp-L-Ala, L-tryptophan-L-alanine] (H-Trp-Ala-OH)", "values": [
      {"measurement": "effect on yeast cell growth", "setting": "[1]", "value": "no adverse effect"}
    ]},
    {"compound": "C[C@H](NC(=O)[C@@H](N)CCCN=C(N)N)C(=O)O", "note": "[L-Arg-L-Ala, L-arginine-L-alanine] (H-Arg-Ala-OH)", "values": [
      {"measurement": "effect on yeast cell growth", "setting": "[1]; [5]", "value": "no adverse effect"}
    ]},
    {"compound": "COC(=O)[C@@H](N)CC(C)C", "note": "[Leu methyl ester, leucine methyl ester]", "values": [
      {"measurement": "steady state activity (amount) of Leu-βgal", "setting": "Leu-βgal [2]; 3 hours incubation, varying initial OD600", "value": "specifically increases"},
      {"measurement": "increase in βgal level per hour (slope of line of best fit, compared with control levels)", "setting": "Leu-βgal [2]; 7 hour time course, Leu-βgal", "value": 11, "unit": "fold per hour"},
      {"measurement": "magnitude of the effect on Leu-βgal levels over time", "setting": "Leu-βgal [2]; first 7 hours", "value": "increases linearly with time"},
      {"measurement": "effect on Val-βgal level", "setting": "Val-βgal", "value": "No effect"},
      {"measurement": "effect on cell growth", "setting": "[1]; 10 mM Leu methyl ester, exponentially growing cells expressing Arg-βgal or Leu-βgal", "value": "no adverse effects"},
      {"measurement": "amounts of the 90 kD cleavage product", "setting": "Tyr-βgal; 10 mM Leu methyl ester", "value": "decrease"},
      {"measurement": "increase in half-life of Tyr-βgal", "setting": "Tyr-βgal; [6]", "value": 4.8, "unit": "fold"},
      {"measurement": "zero-time increase in the amount of Tyr-βgal protein", "setting": "Tyr-βgal; 10 mM Leu methyl ester, 3 minute pulse", "value": 3.3, "unit": "fold"},
      {"measurement": "in vivo half-life (metabolic stabilization) of Tyr-βgal", "setting": "Tyr-βgal; 10 mM Leu methyl ester", "value": "metabolic stabilization"},
      {"measurement": "in vivo half-life (metabolic stabilization) of Tyr-βgal", "setting": "Tyr-βgal; 10 mM Leu methyl ester, listed as Leu-OMe", "value": "increased"},
      {"measurement": "90 kD βgal cleavage product", "setting": "Leu-βgal [3]; 10 mM Leu methyl ester", "value": "much diminished"},
      {"measurement": "increase in half-life of Leu-βgal", "setting": "Leu-βgal [3]; [6]", "value": 3, "unit": "fold"},
      {"measurement": "zero-time increase in the amount of Leu-βgal protein (βgal band, lane 1)", "setting": "Leu-βgal [3]; 10 mM Leu methyl ester, 5 minute pulse", "value": 1.9, "unit": "fold"},
      {"measurement": "half-life (metabolic stabilization) of Leu-βgal in the presence of Leu methyl ester", "setting": "Leu-βgal [3]", "value": "metabolic stabilization"},
      {"measurement": "half-life (metabolic stabilization) of Leu-βgal in the presence of Leu methyl ester", "setting": "Leu-βgal [3]; listed as Leu-OMe", "value": "increased"},
      {"measurement": "half-life (metabolic stabilization) of Leu-βgal in the presence of Leu methyl ester", "setting": "Leu-βgal [3]; listed as leucine methyl ester", "value": "extended"},
      {"measurement": "concentration at which the effect reaches saturation", "setting": "[4]", "value": "5 to 10", "unit": "mM"},
      {"measurement": "levels of all 5 X-βgal proteins with bulky hydrophobic amino termini", "setting": "[4]; Leu-OMe 0 to 10 mM", "value": "increased"},
      {"measurement": "amount of Arg-βgal", "setting": "Arg-βgal; 10 mM Leu methyl ester, 3 hours incubation, varying initial OD600", "value": "does not increase"},
      {"measurement": "effect on Arg-βgal level", "setting": "Arg-βgal; Leu-OMe 0 to 10 mM, 1 hour incubation", "value": "No effect"}
    ]},
    {"compound": "C[C@H](N)C(=O)N[C@@H](CCCNC(=N)N)C(=O)O", "note": "[L-Ala-L-Arg, L-alanine-L-arginine, reference compound] (H-Ala-Arg-OH)", "values": [
      {"measurement": "effect on yeast cell growth", "setting": "[1]; [5]", "value": "no adverse effect"},
      {"measurement": "in vivo metabolic stabilization of Arg-βgal (βgal activity relative to untreated control)", "setting": "Arg-βgal", "value": "no effect"}
    ]}
  ]
}
